Measurements as given in paper PMC7176092, “Development of the first in vivo GPR17 ligand through an iterative drug discovery pipeline: A novel disease-modifying strategy for multiple sclerosis” (PLoS ONE, 2020).
Several values for one entry are separate records, joined by “and”; a condition that tells them apart may be missing. Equal values may be shown once. Read-outs that look alike come from different tables or passages of the source.

Key:
CCR1 = target: T1, CCR1 (Homo sapiens, UniProt P32246); assay: Binding assay CCR1; settings: 100 nM
T1 construct: Eurofins Cerep (external service)
T1 sequence (P32246 1-355): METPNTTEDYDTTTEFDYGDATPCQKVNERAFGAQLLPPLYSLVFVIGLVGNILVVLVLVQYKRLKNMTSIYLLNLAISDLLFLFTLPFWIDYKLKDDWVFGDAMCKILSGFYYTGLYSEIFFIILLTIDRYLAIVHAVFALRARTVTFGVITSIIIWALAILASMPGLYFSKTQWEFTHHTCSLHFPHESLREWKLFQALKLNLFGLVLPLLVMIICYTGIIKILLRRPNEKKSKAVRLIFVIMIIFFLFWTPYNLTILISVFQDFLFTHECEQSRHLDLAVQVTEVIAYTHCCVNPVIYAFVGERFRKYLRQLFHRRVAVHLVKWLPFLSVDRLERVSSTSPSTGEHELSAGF

M4 = target: T2, M4 (Homo sapiens, UniProt P08173); assay: Binding assay M4; settings: 100 nM
T2 construct: Eurofins Cerep (external service)
T2 sequence (P08173 1-479): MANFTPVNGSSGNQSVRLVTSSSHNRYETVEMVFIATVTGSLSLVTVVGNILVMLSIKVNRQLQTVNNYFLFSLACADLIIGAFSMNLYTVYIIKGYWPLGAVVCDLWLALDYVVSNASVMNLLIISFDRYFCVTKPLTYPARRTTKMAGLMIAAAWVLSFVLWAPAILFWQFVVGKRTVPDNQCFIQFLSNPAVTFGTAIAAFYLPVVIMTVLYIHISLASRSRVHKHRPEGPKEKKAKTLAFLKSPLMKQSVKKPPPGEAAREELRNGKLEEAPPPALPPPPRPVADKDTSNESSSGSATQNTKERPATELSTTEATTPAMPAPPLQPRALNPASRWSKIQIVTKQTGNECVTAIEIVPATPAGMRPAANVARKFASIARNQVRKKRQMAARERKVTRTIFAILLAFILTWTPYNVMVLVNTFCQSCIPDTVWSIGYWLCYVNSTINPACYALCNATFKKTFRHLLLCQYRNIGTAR

mGluR5 = target: T3, mGluR5 (Homo sapiens, UniProt P41594); assay: Binding assay mGluR5; settings: 100 nM
T3 construct: Eurofins Cerep (external service)
T3 sequence (P41594 21-1212): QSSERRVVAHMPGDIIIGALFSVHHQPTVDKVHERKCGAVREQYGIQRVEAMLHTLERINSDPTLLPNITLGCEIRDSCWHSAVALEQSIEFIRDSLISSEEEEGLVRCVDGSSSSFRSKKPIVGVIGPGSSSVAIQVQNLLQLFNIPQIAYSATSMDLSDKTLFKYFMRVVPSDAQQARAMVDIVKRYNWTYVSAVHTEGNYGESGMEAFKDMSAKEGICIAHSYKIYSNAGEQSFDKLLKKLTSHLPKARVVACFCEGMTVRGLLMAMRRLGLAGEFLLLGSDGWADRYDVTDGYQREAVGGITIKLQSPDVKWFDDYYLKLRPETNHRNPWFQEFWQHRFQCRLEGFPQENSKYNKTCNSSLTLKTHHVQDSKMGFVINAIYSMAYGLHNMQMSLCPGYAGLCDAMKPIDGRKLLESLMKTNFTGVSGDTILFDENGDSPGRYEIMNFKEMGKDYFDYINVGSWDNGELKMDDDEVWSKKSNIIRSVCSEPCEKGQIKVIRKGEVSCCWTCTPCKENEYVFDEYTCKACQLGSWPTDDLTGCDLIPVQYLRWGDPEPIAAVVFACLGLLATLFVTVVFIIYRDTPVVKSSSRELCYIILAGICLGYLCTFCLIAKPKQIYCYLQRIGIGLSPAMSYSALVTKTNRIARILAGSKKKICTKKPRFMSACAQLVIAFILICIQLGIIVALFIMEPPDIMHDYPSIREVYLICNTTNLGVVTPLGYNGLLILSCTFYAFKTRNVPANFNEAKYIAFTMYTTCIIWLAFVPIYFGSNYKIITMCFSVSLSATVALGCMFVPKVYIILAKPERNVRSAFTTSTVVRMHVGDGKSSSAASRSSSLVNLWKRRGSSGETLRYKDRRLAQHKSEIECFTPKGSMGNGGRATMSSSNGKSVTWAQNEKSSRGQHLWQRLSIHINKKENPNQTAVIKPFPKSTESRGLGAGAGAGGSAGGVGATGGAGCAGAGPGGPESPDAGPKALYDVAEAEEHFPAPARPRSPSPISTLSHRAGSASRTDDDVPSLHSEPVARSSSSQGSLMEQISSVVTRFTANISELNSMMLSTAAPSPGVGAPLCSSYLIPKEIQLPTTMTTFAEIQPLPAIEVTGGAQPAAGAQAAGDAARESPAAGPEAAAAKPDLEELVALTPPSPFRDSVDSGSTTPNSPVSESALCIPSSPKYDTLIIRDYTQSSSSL

CX3CR1 = target: T4, CX3CR1 (Homo sapiens, UniProt P49238); assay: Cellular functional assay CX3CR1
T4 sequence (P49238 1-355): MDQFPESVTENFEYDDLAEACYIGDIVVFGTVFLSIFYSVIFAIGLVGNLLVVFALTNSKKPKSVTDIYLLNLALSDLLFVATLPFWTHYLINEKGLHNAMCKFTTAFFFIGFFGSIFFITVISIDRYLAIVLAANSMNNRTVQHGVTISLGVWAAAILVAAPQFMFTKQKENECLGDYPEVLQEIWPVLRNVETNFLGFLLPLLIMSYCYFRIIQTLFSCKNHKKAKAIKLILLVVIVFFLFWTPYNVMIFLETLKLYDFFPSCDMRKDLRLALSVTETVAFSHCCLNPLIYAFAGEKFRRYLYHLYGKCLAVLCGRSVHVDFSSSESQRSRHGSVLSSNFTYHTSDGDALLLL

CysLT2 = target: T5, CysLT2 (Homo sapiens, UniProt Q9NS75); assay: Binding assay CysLT2; settings: 100 nM
T5 construct: Eurofins Cerep (external service)
T5 sequence (Q9NS75 1-346): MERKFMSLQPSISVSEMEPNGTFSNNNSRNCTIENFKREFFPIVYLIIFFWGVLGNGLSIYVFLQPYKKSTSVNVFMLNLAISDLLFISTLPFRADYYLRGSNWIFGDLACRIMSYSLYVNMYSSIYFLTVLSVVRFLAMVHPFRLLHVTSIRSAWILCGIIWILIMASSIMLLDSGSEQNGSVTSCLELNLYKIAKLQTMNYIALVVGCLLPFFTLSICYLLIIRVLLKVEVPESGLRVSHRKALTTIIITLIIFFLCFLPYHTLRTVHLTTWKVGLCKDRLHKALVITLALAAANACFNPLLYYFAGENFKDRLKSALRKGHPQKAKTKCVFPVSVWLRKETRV

[1] = In vivo mouse DMPK study, single 1 mg/kg subcutaneous dose
Protocol: In vivo DMPK studies were performed as an external service by Aptuit (Verona, Italy) according to standard procedures.
Two compounds were tested in a single dose pharmacokinetic (PK) study in mouse, in which a 1 mg/kg single dose solution (15% Ethanol, 85% PEG400) was administered by subcutaneous injection to naïve CD1 male mice from accredited supplier (n = 3), weighed prior to dosing. Blood samples were collected for 8 time-points (0.25, 0.50, 1, 2, 4, 6, 8, 24 hours).
Plasma samples were prepared and diluted according standard in-house procedures and stored at approximately -20°C, pending analysis. Briefly, blood samples were collected into tubes containing anticoagulant (K3EDTA), stored on ice and centrifuged to prepare plasma within 2 hours of collection. Plasma samples were diluted in Hepes Buffer and deproteinised using CH3CN containing rolipram as internal reference compound for positive ion mode, according standard procedure (20 ng/ml). After vortexing and centrifugation (3000 rpm per 10 min), sample supernatants were transferred in 96 well plate and diluted with water for analysis.
Blood concentrations of the tested compounds and their metabolites were detected through Liquid Chromatography-tandem Mass Spectrometry (QTRAP® 4000 LC-MS/MS System, Sciex). The results for each test compound in plasma were subjected to non-compartmental PK analysis using WinNonlin Phoenix v.6.3 for generation of appropriate PK parameters, reported along with graphical representation of the mean plasma concentration profiles over time.
At 24 hours, animals were sacrificed, and brains were collected and processed for measuring compound concentrations through mass spectrometry.

[2] = mean of 2, read-out: % Of control specific binding, Mean
[3] = read-out: % Inhibition of control specific binding
[4] = single replicates 1 and 2, 0.1 µM
[5] = single replicates 1 and 2, read-out: % Of control specific binding
[6] = mouse, sc, plasma, 1 mg/kg s.c. single dose, CD1 male mice

Structure (SMILES): Cc1ccc(-c2nnc(SCC(=O)Nc3nccs3)[nH]2)cc1 [Compound 9]
- remaining activity at 0.1 µM (CCR1; [2]): 108%
- inhibition at 0.1 µM (CCR1; [3]): -8%
- % Of control specific binding (CCR1; [4]): 109%
- remaining activity at 0.1 µM (CCR1; [5]): 108%
- remaining activity at 0.1 µM (M4; [2]): 95.4%
- inhibition at 0.1 µM (M4; [3]): 5%
- % Of control specific binding (M4; [4]): 95.1%
- remaining activity at 0.1 µM (M4; [5]): 95.7%
- remaining activity at 0.1 µM (mGluR5; [2]): 104%
- inhibition at 0.1 µM (mGluR5; [3]): -4%
- % Of control specific binding (mGluR5; [4]): 106.8%
- remaining activity at 0.1 µM (mGluR5; [5]): 102%
- Agonist Response (% of Control) (CX3CR1; antagonist effect, 100 nM, single replicates 1st and 2nd, 0.1 µM): 105.4%
- inhibition at 0.1 µM (CX3CR1; read-out: % Inhibition of control agonist response): 0.2%
- activity at 0.1 µM (CX3CR1; read-out: Agonist Response (% of Control), Mean, antagonist effect, 100 nM, mean of 2): 107%
- activity at 0.1 µM (CX3CR1; read-out: Agonist Response (% of Control), antagonist effect, 100 nM, single replicates 1st and 2nd): 110%
- remaining activity at 0.1 µM (CysLT2; [2]): 101%
- inhibition at 0.1 µM (CysLT2; [3]): -1%
- % Of control specific binding (CysLT2; [4]): 103.4%
- remaining activity at 0.1 µM (CysLT2; [5]): 97.9%
- Plasma concentration, individual mice ([1]; 0.50 h, 1 mg/kg s.c., 1 mg/kg): 0.0717 µg/mL and 0.0983 µg/mL and 0.0308 µg/mL
- Plasma concentration, individual mice ([1]; 1.00 h, 1 mg/kg s.c., 1 mg/kg): 0.0143 µg/mL and 0.0385 µg/mL and 0.0763 µg/mL
- Plasma concentration, individual mice ([1]; 2.00 h, 1 mg/kg s.c., 1 mg/kg): 0.0056 µg/mL and 0.0103 µg/mL and 0.0298 µg/mL
- Plasma concentration, individual mice ([1]; 4.00 h, 1 mg/kg s.c., 1 mg/kg): 0.0026 µg/mL
- concentration at 0.5 h ([1]; male, CD1, mouse, plasma, sc, 1 mg/kg, 0.50 h, 1 mg/kg s.c., n=3 mice, read-out: Plasma concentration, Mean): 0.0669 µg/mL
- concentration at 1 h ([1]; male, CD1, mouse, plasma, sc, 1 mg/kg, 1.00 h, 1 mg/kg s.c., n=3 mice, read-out: Plasma concentration, Mean): 0.043 µg/mL
- concentration at 2 h ([1]; male, CD1, mouse, plasma, sc, 1 mg/kg, 2.00 h, 1 mg/kg s.c., n=3 mice): 0.0152 µg/mL
- concentration at 4 h ([1]; male, CD1, mouse, plasma, sc, 1 mg/kg, 4.00 h, 1 mg/kg s.c., read-out: Plasma concentration, Mean): 0.0028 µg/mL
- concentration at 4 h ([1]; male, CD1, mouse, plasma, sc, 1 mg/kg, 4.00 h, 1 mg/kg s.c., read-out: Plasma concentration, individual mice): 0.0029 µg/mL
- concentration at 4 h ([1]; male, CD1, mouse, plasma, sc, 1 mg/kg, plasma, 1 mg/kg s.c. single dose, CD1 male mice, read-out: Clast): 0.00481 µg/mL
- AUC(0-t) [1, 6]: 0.0858 µg·h/mL
- Cmax [1, 6]: 0.0723 µg/mL
- Tmax [1, 6]: 30 min
- half-life [1, 6]: 65.4 min
- Metabolites found in vivo ([1]; plasma after s.c. administration in mice): no detectable metabolites
- Tlast ([1]; plasma, 1 mg/kg s.c. single dose, CD1 male mice): 4.00 h
